Where “and” joins values, the source holds several entries; their conditions need not be identical. Identical values can stand only once.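 1) Cells in 96-well plates. 2) Compound, 48 h, 5 concentrations. 3) Linear interpolation between surrounding doses. 4) Unreached endpoint = highest concentration. Abbreviation: GI50, concentration required for 50% inhibition of growth. At the TGI there is no net growth.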
Experiments:
Assay in all cases: NCI tumour cell line growth inhibition, 48 h
SK-MEL-5 melanoma = test system: SK-MEL-5 melanoma
LOX IMVI melanoma = test system: LOX IMVI melanoma
NCI-H460 lung = test system: NCI-H460 lung
HL-60(TB) leukemia = test system: HL-60(TB) leukemia
OVCAR-3 ovarian = test system: OVCAR-3 ovarian
K-562 leukemia = test system: K-562 leukemia
RXF 393 renal = test system: RXF 393 renal
T-47D breast = test system: T-47D breast
HCC-2998 colon = test system: HCC-2998 colon
NCI-H23 lung = test system: NCI-H23 lung

Structure (SMILES)	TGI (SK-MEL-5 melanoma)	TGI (LOX IMVI melanoma)	TGI (NCI-H460 lung)	TGI (HL-60(TB) leukemia)	TGI (OVCAR-3 ovarian)	TGI (K-562 leukemia)	TGI (RXF 393 renal)	TGI (T-47D breast)	TGI (HCC-2998 colon)	TGI (NCI-H23 lung)	GI50 (SK-MEL-5 melanoma)	GI50 (LOX IMVI melanoma)	GI50 (NCI-H460 lung)	GI50 (OVCAR-3 ovarian)	GI50 (RXF 393 renal)	GI50 (T-47D breast)
CC(C)(C)CC(C)(C)c1ccc(O)c(C[N+](C)(C)[O-])c1	> 100 µM	> 100 µM	> 100 µM	99.6 µM	> 100 µM	> 100 µM	> 100 µM	> 100 µM	> 100 µM	> 100 µM						
O=C1CC2CCC(C1)S2=O (stereo not given)	> 100 µM	> 100 µM	> 100 µM	> 100 µM	> 100 µM	> 100 µM	> 100 µM	> 100 µM	> 100 µM	> 100 µM						
COc1ccc(N2NC(c3ccccc3)(c3ccccc3)C(C)C2=O)cc1 (stereo not given)	> 100 µM	> 100 µM	> 100 µM	> 100 µM	> 100 µM	> 100 µM	> 100 µM	> 100 µM	> 100 µM	> 100 µM						
O=C1C(=Cc2ccc(Cl)c(Cl)c2)C([O-])=C([P+](c2ccccc2)(c2ccccc2)c2ccccc2)C([O-])=C1[P+](c1ccccc1)(c1ccccc1)c1ccccc1	5.24 µM	2.67 µM	10.9 µM	3.18 µM	3.74 µM	8.33 µM	3.35 µM	15.7 µM	5.78 µM	10 µM						
Cc1c(C(=O)O)n2cnnc2c2ccccc12	> 100 µM	> 100 µM	> 100 µM	> 100 µM	> 100 µM	> 100 µM	> 100 µM	> 100 µM	> 100 µM	> 100 µM						
CCCCCCCCCCCCCC(=O)N(CCCCCCCCC)CC(O)C(O)C(OC1OC(CO)C(O)C(O)C1O)C(O)CO (stereo not given)	34.7 µM	39.6 µM	39.1 µM	48.7 µM	53.1 µM	39.4 µM	54.9 µM	39.7 µM	33.7 µM	41.5 µM						
CCOC(=O)[C@@H]1ON2OC(OC3CCCC3(c3ccccc3)c3ccccc3)C(OC(C)=O)[C@H]3OC(=O)[C@@H]1C32 (stereo not given in full)	> 100 µM	60.3 µM	> 100 µM	> 100 µM	> 100 µM	> 100 µM	84.2 µM	> 100 µM	> 100 µM	> 100 µM						
C=C(c1ccccc1)c1ccccc1-c1cc(-c2ccccc2)cc(-c2ccccc2)n1	> 100 µM	> 100 µM	> 100 µM	> 100 µM	> 100 µM	> 100 µM	> 100 µM	61.3 µM	> 100 µM	> 100 µM						
COc1ccc(C(=O)/C=C/c2cc(O)c(O)cc2F)c(OC)c1	20.9 µM	26.9 µM	17.7 µM	5.71 µM	2.65 µM	> 43.1 µM	26.7 µM	> 80.3 µM	7.42 µM	26.6 µM						
CN1CCN(C2=CC(=O)c3c(O)ccc(O)c3C2=O)CC1	0.325 µM	1.79 µM	3.52 µM	0.785 µM	0.611 µM	1.72 µM	2.93 µM	2.04 µM	3.23 µM	2.8 µM						
CC(=O)c1c2n(n(-c3ccccc3)c1=O)C(=O)c1nccnc1-2	> 100 µM	> 100 µM	> 100 µM	> 100 µM	> 100 µM	> 100 µM	> 100 µM	> 100 µM	> 100 µM	> 100 µM						
OC(CC(O)(C(F)(F)F)C(F)(F)F)c1ccc(C(O)CC(O)(C(F)(F)F)C(F)(F)F)cc1 (stereo not given)	27.3 µM	30.7 µM	31.6 µM	37.4 µM	18.2 µM	60.7 µM	30.7 µM	31.3 µM	33.3 µM	26.7 µM						
CC(C)(C)[Si](C)(C)OCC1OC(n2cnc3c(=O)[nH]c(N)nc32)C(O[Si](C)(C)C(C)(C)C)C1O[Si](C)(C)C(C)(C)C (stereo not given)	1.77 µM	> 19.7 µM	6.54 µM	2.34 µM	3.56 µM	2.76 µM	4.69 µM	5.14 µM	4.02 µM	2.9 µM						
O=[N+]([O-])C(Cl)=C/C(=C(\Cl)SCc1ccccc1)[N+](=O)[O-]	47.3 µM	33.6 µM	> 100 µM	23.8 µM	32 µM	30.5 µM	26.3 µM	40.2 µM	77.6 µM	69.6 µM						
C=C(C(=O)O[C@H]1C(=O)C2=C(C)CCC3C(=C)C(=O)O[C@@H]3C2[C@]1(C)O)C1CC[C@]2(C)CCCC(=C)[C@H]2C1 (stereo not given in full)	15.8 µM and 29.7 µM	11.5 µM and 15.7 µM	10.4 µM and 11.1 µM	4.35 µM	9.84 µM and 9.06 µM	> 20.1 µM	2.52 µM and 3.65 µM	13.1 µM and 5.03 µM	9.68 µM	16.1 µM and 16.8 µM	8.45 µM	5.26 µM	0.0398 µM	3.39 µM	1.79 µM	2.06 µM
C[C@H]1COC2=C1C(=O)C(=O)c1c2ccc2c1CCCC2(C)C	1.43 µM	14.4 µM	> 34.5 µM	42.3 µM	5.92 µM	> 100 µM	55.6 µM	> 100 µM	19.6 µM	3.57 µM						
CC1(C)CCc2c(c(N=Nc3ccc(F)cc3)c3ccccc3c2O)O1	21.1 µM	47.3 µM	63.4 µM	65.1 µM	70.8 µM	> 100 µM	> 100 µM	86.8 µM	42.8 µM	> 100 µM						

Structure (SMILES)	TGI (SK-MEL-5 melanoma)	TGI (LOX IMVI melanoma)	TGI (NCI-H460 lung)	TGI (HL-60(TB) leukemia)	TGI (OVCAR-3 ovarian)	TGI (K-562 leukemia)	TGI (RXF 393 renal)	TGI (T-47D breast)	TGI (HCC-2998 colon)	TGI (NCI-H23 lung)	GI50 (SK-MEL-5 melanoma)	GI50 (LOX IMVI melanoma)	GI50 (NCI-H460 lung)	GI50 (OVCAR-3 ovarian)	GI50 (RXF 393 renal)	GI50 (T-47D breast)
O=C(CSc1nc2ccccc2c(=O)n1-c1ccccc1)N=Nc1c(O)[nH]c2ccc(F)cc12	15.4 µM	> 100 µM	4.69 µM	3.96 µM	3.91 µM	3.35 µM	4.09 µM	3.97 µM	4.75 µM	9.21 µM						
CCN1CCC(O)(/C=C/c2ccc(OC)cc2)C(C(=O)/C=C/c2ccc(OC)cc2)C1 (stereo not given)		8.82 µM	27.6 µM	52.2 µM	27.6 µM	12.2 µM	11.9 µM	24.1 µM	29 µM	27.9 µM						
O=C(O)C(=O)/C=C(\O)c1ccc(Br)cc1	> 100 µM	> 100 µM	> 100 µM	> 100 µM	> 100 µM	> 100 µM	> 100 µM	> 100 µM	> 100 µM	> 100 µM						
CCOC(=O)N1CCC(=C2c3ccc(Cl)cc3CCc3cccnc32)CC1	9.22 µM	74.6 µM	18.9 µM	22.9 µM	22.5 µM	49.7 µM	22.7 µM	35 µM	23.6 µM	35.6 µM						
CN(Cc1cc(Cl)c(Cl)cc1NC(=O)CN)[C@H]1CCCC[C@@H]1N1CCCC1	32.1 µM	32.3 µM	57.8 µM	> 100 µM	> 100 µM	35.9 µM	> 100 µM	> 100 µM	31.2 µM	> 100 µM						
C=C1CN(C2=NCCO2)C1	> 100 µM	> 100 µM	> 100 µM	> 100 µM	> 100 µM	> 100 µM	> 100 µM	> 100 µM	> 100 µM	> 100 µM						
C=C1C(=O)OC2CC3(C)OC3CC/C(C)=C/C(OC(C)=O)C12 (stereo not given)	20.4 µM	12.8 µM	31.6 µM	3.4 µM	34.7 µM	15.4 µM	16.4 µM	15.9 µM	31.6 µM	27.6 µM						
Cc1ccc([N+](=O)[O-])c2c(NCC(O)CO)ccnc12 (stereo not given)	42.3 µM	> 100 µM	53.2 µM	> 100 µM	> 100 µM	> 100 µM	> 100 µM	> 100 µM	> 100 µM	> 100 µM						
CCOC(=O)c1c(-c2cccc3ccccc23)c(C#N)c(=S)n(C2OC(COC(C)=O)C(OC(C)=O)C(OC(C)=O)C2OC(C)=O)c1C (stereo not given)	> 100 µM	> 100 µM	> 100 µM	> 100 µM	> 100 µM	> 100 µM	> 100 µM	> 100 µM	> 100 µM	> 100 µM						
Oc1cc(Br)cc2cc(Cl)cnc12	15.4 µM	> 26.5 µM	32.6 µM	2.75 µM	11.2 µM	12.3 µM	15.2 µM	16.7 µM	46.3 µM	48.2 µM						
CCN1CCC(O)(/C=C/c2ccc(C(C)C)cc2)C(C(=O)/C=C/c2ccc(C(C)C)cc2)C1 (stereo not given)	12.7 µM	3.38 µM	3.35 µM	> 26.8 µM	11.7 µM	> 29 µM	6.59 µM	6.19 µM	3.64 µM	5.88 µM						
Fc1cc(-c2cc(-c3ccc4c(c3)OCO4)n[nH]2)c(Cl)cc1Cl	21 µM	8.49 µM	14.6 µM	> 100 µM	5.33 µM	> 40.1 µM	4.45 µM	7.79 µM	15.6 µM	7.73 µM						
C=CCn1c(-c2ccc([N+](=O)[O-])cc2)csc1=N	> 100 µM	70.5 µM	> 100 µM	45.2 µM	> 100 µM	91.5 µM	54.4 µM	> 100 µM	> 100 µM	> 100 µM						
CCC(NC1=NCCO1)c1cccs1 (stereo not given)	30.6 µM	66.7 µM	46 µM	82.7 µM	30.6 µM	47.4 µM	33.2 µM	37 µM	28.9 µM	31.6 µM						
O=C(O)CCC(NC(=O)c1ccc(Nc2nc3cc(C(F)(F)F)ccc3nc2C(=O)O)cc1)C(=O)O (stereo not given)	> 100 µM	> 100 µM	> 100 µM	> 100 µM	> 100 µM	> 100 µM	> 100 µM	> 100 µM	> 100 µM	> 100 µM						
c1ccc(CN2CCN3CCN(CC2)CCN(Cc2ccccc2)CC3)cc1	4.96 µM	25.7 µM	19.3 µM	8.32 µM	24.5 µM	25.6 µM	21.3 µM	35.8 µM	23.3 µM	21.8 µM						
